# Reference: PubChem BioAssay AID1996
# Details: buffer; pH 7.4; 200.0 µM
row,solubility kinetic [µg/mL],SMILES
1,> 32.6,O=C1OCc2ccc(NC(=O)C3CC3)cc21
2,> 51.8,Cc1cc(=O)n2c(n1)NC(=NCc1ccccc1)NC2c1ccccc1 (stereo not given)
3,< 0.4,Cc1cccc(C)c1OCC(=O)Nc1ccccc1N1CCCCC1
4,48.6,CCCCCCn1c(N2CCCC2)nc2c1c(=O)n(C)c(=O)n2C
5,4.3,Clc1ccc(CN2CCC(c3ccccc3)CC2)cc1
6,< 0.4,Cc1ccc(NC(=S)NC2CCSc3ccccc32)cc1C (stereo not given)
7,38.1,CN1C(=O)c2ccccc2N(C)C1c1cccc(O)c1 (stereo not given)
8,> 51.4,COc1cccc(C(=O)NCCCNC(=O)c2cccc(OC)c2)c1
9,6.5,Cc1c(C=O)c2ccccn2c1C(=O)c1ccc(F)cc1
10,2.2,Cc1ccc(C)c(NCC(=O)c2ccc(Cl)cc2)c1
11,30.4,Cn1c(-c2cccs2)nc2ccccc21
12,5.3,Cc1c(C(=O)NC2CCCCC2)oc2ccccc12
13,24.5,CCOc1ccc(Nc2cc(C)nc3c(C)cccc23)cc1
14,> 45.3,CCOc1ccc(/C=N/OCC(=O)NCc2ccco2)cc1
15,46.3,O=C(Nc1ccccc1)Nc1ccccc1C(=O)NCCCN1CCOCC1
16,> 46.5,O=C(O)c1ccc(/C=N/Nc2ncc(Cl)cc2Cl)cc1
17,52.8,CC1CCN(C(=O)CN(Cc2ccc(Cl)cc2)S(C)(=O)=O)CC1
18,< 0.3,CN(C(=O)c1ccco1)c1nc(-c2ccc(F)cc2)cs1
19,> 48.9,CC(C)CNS(=O)(=O)c1cc(C(=O)O)c(Cl)cc1Cl
20,46.1,O=C(/C=C/c1c(Cl)cccc1Cl)NCCCn1ccnc1

row,solubility kinetic [µg/mL],SMILES
1,> 65.5,O=S(=O)(c1cccc(-c2n[nH]c(=S)n2-c2ccccc2Cl)c1)N1CCOCC1
2,32.1,COc1cc(OC)c(NC(=O)Cc2cccs2)cc1Cl
3,> 50.4,O=C(COC(=O)CSc1ccc(Cl)cc1)Nc1ccccc1
4,2,Cc1noc(C(=O)Nc2cccc(Cl)c2)c1Cl
5,> 36.2,COC(=O)c1c(N)sc2c1CC(C)(C)OC2
6,10.9,Cc1ccsc1C(=O)OCC(=O)NCc1ccccc1
7,42.1,O=C(COC(=O)CC1CCCC1)Nc1ccc(OC(F)F)cc1
8,3.7,CN(CC(=O)Nc1cccc(C(F)(F)F)c1)C1=NS(=O)(=O)c2ccccc21
9,2.2,COc1ccc(C(=O)N[C@H](C(=O)NCCCSc2ccccc2)C(C)C)cc1
10,47.9,Cc1ccc(C)c(NC(=O)CN(C)C(C)C(=O)N2CC(C)CC(C)C2)c1 (stereo not given)
11,13.3,O=c1cc(CN2CCN(S(=O)(=O)c3cccc(Cl)c3)CC2)c2ccc(O)cc2o1
12,0.7,Fc1cccc(Cl)c1CNc1ccc(N2CCCC2)cc1
13,> 39.9,CSc1ncccc1C(=O)OCC(=O)NC1CC1
14,47.7,Cc1cccc(C(=O)N2CCCC(c3nc(-c4ccc(C)o4)no3)C2)c1 (stereo not given)
15,> 40.5,COc1ccc(NS(=O)(=O)c2cccs2)cn1
16,48,O=C(c1cc(N2CCOCC2)c(F)cc1[N+](=O)[O-])N1CCOCC1
17,> 39.9,O=C(O)CC1SC(=Nc2ccc(O)cc2)NC1=O (stereo not given)
18,47.1,COc1ccc(NC(=O)COC(=O)C2CCN(S(=O)(=O)c3cccs3)CC2)cc1OC
19,7.3,c1ccc(-c2nccc3ccccc23)cc1
20,> 57.5,O=C(NCCC(=O)N1CCN(c2ccccn2)CC1)c1ccc([N+](=O)[O-])cc1

row,solubility kinetic [µg/mL],SMILES
1,> 48.8,CCc1nc(N2CCCCC2C(=O)O)c2oc3ccccc3c2n1 (stereo not given)
2,23.9,Cc1cc(C(c2cc(C)c(N)c(C)c2)c2ccco2)cc(C)c1N
3,2.1,Cc1sc2nc(-c3cccnc3)[nH]c(=O)c2c1-c1ccccc1
4,> 45.3,CCOC(=O)Nc1cccc(NC(=O)c2ccccc2F)c1
5,1.2,Cc1cc(C)c2cc(C(=O)Nc3ccccc3)[nH]c2c1
6,> 42.2,O=C(CSc1ccccn1)Nc1nonc1[N+](=O)[O-]
7,< 0.4,Cc1ccc(NS(=O)(=O)c2ccc(-c3csc(C)n3)s2)c(C)c1
8,> 40.7,COC(=O)C/C=N/N=C1/NC(=O)/C(=C/C(=O)O)S1
9,1,COc1cccc(C2N(c3ccccc3)CCN2c2ccccc2)c1OC
10,18.4,O=C(COC(=O)c1ccc2c(c1)OCO2)NC1CCCCC1
11,> 47.2,COc1ccc(C(=O)CCC(=O)Nc2cccnc2)c(OC)c1
12,3.1,CCN(C(=O)CSc1nc2scc(-c3ccccc3)c2c(=O)n1C)C1CCS(=O)(=O)C1 (stereo not given)
13,50.4,COC(=O)Nc1ccc(S(=O)(=O)N2CCCC(C(=O)O)C2)cc1 (stereo not given)
14,> 35.6,COc1ccc(OC)c(N=C(N)N=C(N)N)c1
15,46.8,CCOc1ccccc1NC(=O)CNC(=O)Cc1ccccc1
16,38.9,CC(=O)Oc1ccc(C(=O)Nc2ccc3c(c2)OCCO3)cc1
17,47.4,O=C(Nc1ccon1)c1ccc(S(=O)(=O)N2CCOCC2)cc1
18,38.1,CCc1ccc(CN2CCC(CO)(CC3CCCCO3)CC2)o1 (stereo not given)
19,8.3,Cc1cnc(=O)[nH]c1SCc1cccc(C(F)(F)F)c1

row,SMILES,solubility kinetic [µg/mL]
1,Cc1ccccc1CN(C)CCc1ccccn1.O=C(O)C(=O)O,25.6
